Earlier results in patent US8609359B2, “Methods for determining the concentration of gamma-hydroxy butyric acid (GHB) in a sample” (Bühlmann Laboratories AG, priority 2009, dated 2013).

Legend:
[1] = system: GHB receptor; conditions: for GHB-appropriate responding: animals
[2] = effects can resolve quite suddenly
[3] = target: GABAB receptor (Homo sapiens, UniProt Q9UBS5)
[4] = when consumed with food
[5] = in 1 ml of water

GABAB receptor, sequence (Q9UBS5 15-961 limits assumed): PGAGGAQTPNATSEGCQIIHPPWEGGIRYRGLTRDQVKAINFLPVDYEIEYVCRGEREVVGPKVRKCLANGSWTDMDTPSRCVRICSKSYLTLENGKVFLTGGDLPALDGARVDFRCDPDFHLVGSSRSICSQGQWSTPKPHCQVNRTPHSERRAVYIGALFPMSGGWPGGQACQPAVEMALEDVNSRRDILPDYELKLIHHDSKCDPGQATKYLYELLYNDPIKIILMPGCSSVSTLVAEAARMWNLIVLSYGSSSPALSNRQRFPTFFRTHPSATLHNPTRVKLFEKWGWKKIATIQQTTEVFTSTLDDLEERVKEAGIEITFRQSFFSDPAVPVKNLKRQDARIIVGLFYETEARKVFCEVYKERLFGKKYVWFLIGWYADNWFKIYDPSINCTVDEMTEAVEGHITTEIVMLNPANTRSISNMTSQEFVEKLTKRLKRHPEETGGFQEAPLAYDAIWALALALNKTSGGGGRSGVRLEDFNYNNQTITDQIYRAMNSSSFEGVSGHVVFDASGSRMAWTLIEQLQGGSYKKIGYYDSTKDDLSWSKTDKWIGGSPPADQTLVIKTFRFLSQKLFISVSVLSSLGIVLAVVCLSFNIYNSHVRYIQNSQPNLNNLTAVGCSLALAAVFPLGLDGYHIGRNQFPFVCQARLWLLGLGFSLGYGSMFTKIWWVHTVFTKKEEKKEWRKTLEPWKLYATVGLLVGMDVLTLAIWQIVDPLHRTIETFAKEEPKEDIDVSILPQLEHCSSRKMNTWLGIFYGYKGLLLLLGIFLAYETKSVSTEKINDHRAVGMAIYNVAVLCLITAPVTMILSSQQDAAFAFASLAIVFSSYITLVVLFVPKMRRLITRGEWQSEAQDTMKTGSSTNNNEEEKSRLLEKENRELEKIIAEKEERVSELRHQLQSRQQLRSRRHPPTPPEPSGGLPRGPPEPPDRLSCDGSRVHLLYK
GABAB receptor, sequence (O75899 42-941 partner): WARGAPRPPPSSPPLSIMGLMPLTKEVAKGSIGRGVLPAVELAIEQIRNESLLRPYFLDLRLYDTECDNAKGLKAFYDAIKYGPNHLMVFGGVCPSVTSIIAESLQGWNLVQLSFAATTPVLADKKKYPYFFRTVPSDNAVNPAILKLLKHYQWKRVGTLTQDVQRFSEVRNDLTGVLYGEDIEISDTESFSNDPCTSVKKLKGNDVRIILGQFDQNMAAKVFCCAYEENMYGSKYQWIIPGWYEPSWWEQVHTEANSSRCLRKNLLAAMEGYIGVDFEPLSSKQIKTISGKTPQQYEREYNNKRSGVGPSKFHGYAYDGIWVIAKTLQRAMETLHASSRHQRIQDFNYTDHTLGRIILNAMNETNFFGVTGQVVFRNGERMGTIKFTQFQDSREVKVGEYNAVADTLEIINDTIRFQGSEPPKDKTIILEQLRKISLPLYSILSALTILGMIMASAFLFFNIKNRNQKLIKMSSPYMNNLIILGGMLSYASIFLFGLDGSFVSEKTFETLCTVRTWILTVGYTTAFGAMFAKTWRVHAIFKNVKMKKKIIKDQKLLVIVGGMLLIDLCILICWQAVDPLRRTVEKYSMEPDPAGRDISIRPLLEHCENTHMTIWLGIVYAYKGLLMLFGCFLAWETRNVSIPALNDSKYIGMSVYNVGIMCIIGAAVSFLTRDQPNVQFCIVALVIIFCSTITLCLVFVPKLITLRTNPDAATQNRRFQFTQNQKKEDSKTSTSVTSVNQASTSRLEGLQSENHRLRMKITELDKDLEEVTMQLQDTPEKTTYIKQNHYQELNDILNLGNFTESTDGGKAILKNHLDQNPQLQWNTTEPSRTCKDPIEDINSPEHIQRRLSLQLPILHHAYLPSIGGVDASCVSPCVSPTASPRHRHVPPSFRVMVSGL

## O=C(O)CCC(O)Cc1ccc(Cl)cc1 (stereo not shown) [4-(p-chlorobenzyl)-GHB]
[1]
  convulsions in animals: cause convulsions in animals
  GHB-appropriate responding: do not produce GHB-appropriate responding

## O=C(O)CCCO [GHB, 4-hydroxybutanoic acid]
[2]
  duration of the effects: about four
[3]
  affinity for GABAB receptor: relatively weak affinity

## O=C([O-])CCCO.[Na+] [sodium GHB]
[4]
  bioavailability: considerably reduced
[5]
  amount of sodium GHB that can be dissolved: More than 1 g

## O=C(O)/C=C/CO [trans-4-hydroxycrotonic acid]
[1]
  GHB-appropriate responding: do not produce GHB-appropriate responding
